Results as given in patent publication US20220259202A1, “1-(4-(AMINOMETHYL)BENZYL)-2-BUTYL-2H-PYRAZOLO[3,4-C]QUINOLIN-4-AMINE DERIVATIVES AND RELATED COMPOUNDS AS TOLL-LIKE RECEPTOR (TLR) 7/8 AGONISTS, AS WELL AS ANTIBODY DRUG CONJUGATES THEREOF FOR USE IN CANCER THERAPY AND DIAGNOSIS” (SUTRO BIOPHARMA, INC., priority 2019, published 2022).

How the values were obtained:
human PBMCs = assay: Compound-induced cytokine release (ELISA); assay type: cell-based; conditions: IL-6, MCP-1, IL1Ra (FIG. 4A-4C); 24 hrs
Protocol: (§1) This example evaluates the ability of Compound 1 to induce cytokine release in human PBMCs, cyno PBMCs and mouse splenocytes. Compound A and resiquimod, above, were used as controls in the assays.
(§2) Human and cyno PBMCs, mouse splenocytes were isolated as described in previous example. On the day of the assay, 300k of PBMC or splenocytes in 50 μL of culture medium were seeded in 96-well cell culture plates. 50 μL of the test articles (formulated at 2× of starting concentration) were then added into the well. The cell mixtures were co-cultured in the presence of test articles and 10 μg/mL LPS-RS for 24 hrs (human PBMCs) or 48 hr (cyno PBMCs and mouse splenocytes). Released cytokines in cell culture medium were measured by ELISA.

mouse splenocytes = assay: Compound-induced cytokine release (ELISA); assay type: cell-based; conditions: IL-6, MCP-1, TNFα and IP-10 (FIG. 6A-6D); 48 hr
Protocol: as §1, §2

human TLR7 = molecular target: T1, human TLR7 (Homo sapiens, UniProt Q9NYK1); assay: HEK293 SEAP reporter assay, human TLR7 (Biological Example 1); assay type: cell-based; conditions: HEK293-humanTLR7 reporter cells, 4 hrs; read-out: hTLR7 EC50
T1 construct: host or cells: HEK293
T1 sequence (Q9NYK1 27-1049): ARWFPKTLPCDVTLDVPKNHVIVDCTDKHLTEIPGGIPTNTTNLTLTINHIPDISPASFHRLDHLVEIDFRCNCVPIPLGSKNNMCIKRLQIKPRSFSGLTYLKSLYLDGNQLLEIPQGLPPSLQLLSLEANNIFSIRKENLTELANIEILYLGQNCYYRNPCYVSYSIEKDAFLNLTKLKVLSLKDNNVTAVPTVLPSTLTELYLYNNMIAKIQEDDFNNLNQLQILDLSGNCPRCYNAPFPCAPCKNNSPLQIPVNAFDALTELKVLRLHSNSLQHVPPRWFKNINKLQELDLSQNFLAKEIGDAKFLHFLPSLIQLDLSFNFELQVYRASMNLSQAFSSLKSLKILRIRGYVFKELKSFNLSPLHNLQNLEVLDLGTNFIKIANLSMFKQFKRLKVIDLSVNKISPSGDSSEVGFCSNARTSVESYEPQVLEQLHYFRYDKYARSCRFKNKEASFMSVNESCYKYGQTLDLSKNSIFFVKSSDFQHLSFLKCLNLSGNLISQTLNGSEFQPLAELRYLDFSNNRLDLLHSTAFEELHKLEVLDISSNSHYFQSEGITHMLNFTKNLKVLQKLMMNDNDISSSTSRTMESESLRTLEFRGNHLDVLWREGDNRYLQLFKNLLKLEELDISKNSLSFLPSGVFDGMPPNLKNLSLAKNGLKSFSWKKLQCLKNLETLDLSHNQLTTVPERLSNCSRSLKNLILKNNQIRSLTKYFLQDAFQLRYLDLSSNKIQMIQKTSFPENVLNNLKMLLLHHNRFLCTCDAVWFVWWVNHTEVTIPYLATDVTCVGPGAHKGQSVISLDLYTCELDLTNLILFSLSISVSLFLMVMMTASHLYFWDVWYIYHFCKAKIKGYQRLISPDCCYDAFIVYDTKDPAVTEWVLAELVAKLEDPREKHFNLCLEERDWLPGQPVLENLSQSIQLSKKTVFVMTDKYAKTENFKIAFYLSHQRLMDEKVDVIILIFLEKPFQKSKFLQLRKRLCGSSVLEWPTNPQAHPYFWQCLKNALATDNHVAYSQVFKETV
Protocol: In this example, the activity of the TLR7 agonists to activate human TLR7, hTLR7 (or human TLR8, hTLR8, or mouse TLR7, mTLR7) pathway was evaluated on HEK293 reporter cells transfected with human TLR7 (or mouse TLR7 or human TLR8) and an inducible SEAP (secreted embryonic alkaline phosphatase) reporter gene. The SEAP reporter gene is placed under the control of the IFN-β minimal promoter fused to five NF-κB and AP-1-binding sites. Stimulation with a TLR7 agonist activates NF-KB and AP-1 which induces the production of SEAP. Levels of SEAP was determined with HEK-Blue Detection medium.
HEK293-humanTLR7, HEK293-mouseTLR7 and HEK293-humanTLR8 reporter cell lines were purchased from Invivogen and cell lines were maintained in manufacture recommended culture medium with required supplemental antibiotics. On the day of assay, the cells were harvested with Accutase and counted by the Vi-CELL Cell Viability Analyzers. Cells were re-suspended in HEK blue detection medium and a total of 10000 cells were seeded in each well of a 384-well flat bottom plate. Serial dilutions of TLR7 agonists free drugs (1:3 serial dilution starting from 5 μM) was added into treatment wells. Assay plates were cultured at 37° C. in a CO2 incubator for […]. HEK-Blue™ Detection medium changes to a purple/blue color in the presence of secreted SEAP, which can be detected by spectrophotometry at 620-655 nm. […]

cyno PBMCs = assay: Compound-induced cytokine release (ELISA); assay type: cell-based, cynomolgus monkey; conditions: IL-6 and MCP-1 (FIG. 5A-5B); 48 hr
Protocol: as §1, §2

SMILES: CCCCn1nc2c(N)nc3ccccc3c2c1Cc1ccc(CN)cc1 [Compound 1, 1-(4-(aminomethyl)benzyl)-2-butyl-2H-pyrazolo[3,4-c]quinolin-4-amine]
- cytokine release from human PBMCs (human PBMCs): stimulated strong
- cytokine release from mouse splenocytes (mouse splenocytes): stimulated strong
- EC50 (human TLR7): 46.7 nM
- cytokine release from cyno PBMCs (cyno PBMCs): stimulated strong
